The numbers were not newly measured in PMC10147685, “Safety, tolerability, and pharmacokinetics of Aurora kinase B inhibitor AZD2811: a phase 1 dose-finding study in patients with advanced solid tumours” (British Journal of Cancer, 2023), which cites them from elsewhere.

One data set relates to advanced solid tumours. Further details: method as in PMID 22661287. The note with it: cited from earlier work.
For data set [1], the system named is patients with advanced solid tumours. Further details: method as in PMID 27349901. The note with it: cited from earlier work.

SMILES strings stand for the structures.

For the compound `CCN(CCCOc1ccc2c(Nc3cc(CC(=O)Nc4cccc(F)c4)n[nH]3)ncnc2c1)CCOP(=O)(O)O` [barasertib], in the data set with advanced solid tumours, the Objective responses result was “no objective responses” and the “Patients with SD” value was 23%.
With `CC(C)NC(=O)[C@H]1CCC[C@H]1Nc1nc(Nc2ccc(C(=O)N(C)C3CCN(C)CC3)cc2)ncc1C(F)(F)F` [BI 811283], the Objective responses entry in data set [1] is on record as “no objective responses”. Further, the “Patients with SD” value in data set [1] (depending on the treatment schedule) is listed as 30–33%.
